Several values for one entry are separate records, joined by “and”; a condition that tells them apart may be missing. Equal values may be shown once. ± gives the expanded uncertainty stated by the source.
Conditions: Liquid, Ebulliometric method (Recirculating still)

CC(=O)OC(C)C [1-methylethyl ethanoate]
Conditions | vapor or sublimation pressure
304.07 K | 10.57 ± 0.2 kPa
306.28 K | 11.58 ± 0.24 kPa
308.95 K | 13.35 ± 0.28 kPa
312.53 K | 15.79 ± 0.32 kPa
316.52 K | 19 ± 0.36 kPa
317.77 K | 20 ± 0.39 kPa
320.42 K | 22.45 ± 0.43 kPa
323.45 K | 25.6 ± 0.48 kPa
325.91 K | 28.24 ± 0.53 kPa
328.97 K | 31.94 ± 0.59 kPa
332.14 K | 36.19 ± 0.66 kPa
334.75 K | 39.98 ± 0.73 kPa and 40 ± 1 kPa
337.73 K | 44.85 ± 0.81 kPa
340.95 K | 50.51 ± 0.9 kPa
344.18 K | 56.66 ± 0.98 kPa
345.94 K | 60.03 ± 1.1 kPa and 60 ± 1 kPa
348.17 K | 65.32 ± 1.2 kPa
350.35 K | 70.47 ± 1.2 kPa
352.47 K | 75.52 ± 1.3 kPa
354.29 K | 79.97 ± 1.4 kPa and 80 ± 1 kPa
356.48 K | 85.89 ± 1.4 kPa
358.2 K | 90.5 ± 1.5 kPa
359.77 K | 95.13 ± 1.6 kPa
361.79 K | 101.26 ± 1.7 kPa and 101.3 ± 1.7 kPa

CCO [ethanol]
Conditions | vapor or sublimation pressure
307.52 K | 13.19 ± 0.3 kPa
309.89 K | 15.05 ± 0.33 kPa
312.21 K | 17.13 ± 0.37 kPa
315.24 K | 20 ± 0.41 kPa
318.42 K | 23.45 ± 0.47 kPa
320.31 K | 25.72 ± 0.52 kPa
322.13 K | 28.12 ± 0.57 kPa
324.1 K | 30.85 ± 0.61 kPa
325.96 K | 33.68 ± 0.67 kPa
327.52 K | 36.2 ± 0.73 kPa
329.57 K | 40 ± 1 kPa
329.58 K | 40 ± 0.79 kPa
331.49 K | 43.49 ± 0.85 kPa
333.45 K | 47.62 ± 0.93 kPa
335.16 K | 51.36 ± 0.99 kPa
336.76 K | 55.12 ± 1.1 kPa
338.72 K | 60.05 ± 1.1 kPa
338.73 K | 60 ± 1 kPa
340.19 K | 63.84 ± 1.2 kPa
341.5 K | 67.56 ± 1.3 kPa
343.06 K | 72.1 ± 1.3 kPa
344.37 K | 75.99 ± 1.4 kPa
345.69 K | 79.99 ± 1.5 kPa and 80 ± 2 kPa
347.1 K | 84.65 ± 1.6 kPa
348.51 K | 89.37 ± 1.6 kPa
349.83 K | 94.48 ± 1.8 kPa
351.55 K | 101.31 ± 1.9 kPa
351.65 K | 101.3 ± 1.8 kPa
